Source: the supplement of paper PMC10307832

Columns and labels:
Assay in all cases: relative viability (nuclei count vs DMSO), 5 days (fraction); higher = more cells survive
[1] = system: A-427
In short: (§1)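 Medians of duplicate plates are given as relative viability. That measure is the nuclei count in treated wells divided by the count in vehicle wells. Counts were taken on 4× images of lung cancer cell lines in 1536-well plates, 5 days after pin-tool dosing the day after seeding with one drug alone or a fixed anchor-drug dose plus five library-drug doses (not always all listed) in √10 steps.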

[2] = system: CAL-12T
In short: as §1

[3] = system: LK-2
In short: as §1

[4] = system: NCI-H1648
In short: as §1

[5] = system: NCI-H1651
In short: as §1

[6] = system: NCI-H1755
In short: as §1

CCNC(=O)c1noc(-c2cc(C(C)C)c(O)cc2O)c1-c1ccc(CN2CCOCC2)cc1 [Luminespib] + CC(=O)c1c(C)c2cnc(Nc3ccc(N4CCNCC4)cn3)nc2n(C2CCCC2)c1=O [Palbociclib] (partner 0.5 µM)
relative viability ([1]; first compound 0.002 µM): 0.516 | relative viability ([1]; first compound 0.006325 µM): 0.488 | relative viability ([1]; first compound 0.02 µM): 0.503 | relative viability ([1]; first compound 0.06325 µM): 0.467 | relative viability ([1]; first compound 0.2 µM): 0.258 | relative viability ([2]; first compound 0.002 µM): 0.601 | relative viability ([2]; first compound 0.006325 µM): 0.467 | relative viability ([2]; first compound 0.02 µM): 0.161 | relative viability ([2]; first compound 0.06325 µM): 0.11 | relative viability ([2]; first compound 0.2 µM): 0.0956 | relative viability ([3]; first compound 0.002 µM): 0.679 | relative viability ([3]; first compound 0.006325 µM): 0.563 | relative viability ([3]; first compound 0.02 µM): 0.351 | relative viability ([3]; first compound 0.06325 µM): 0.0849 | relative viability ([3]; first compound 0.2 µM): 0.0745 | relative viability ([4]; first compound 0.002 µM): 0.216 | relative viability ([4]; first compound 0.006325 µM): 0.336 | relative viability ([4]; first compound 0.02 µM): 0.246 | relative viability ([4]; first compound 0.06325 µM): 0.361 | relative viability ([4]; first compound 0.2 µM): 0.387 | relative viability ([5]; first compound 0.002 µM): 0.544 | relative viability ([5]; first compound 0.006325 µM): 0.521 | relative viability ([5]; first compound 0.02 µM): 0.408 | relative viability ([5]; first compound 0.06325 µM): 0.423 | relative viability ([5]; first compound 0.2 µM): 0.332 | relative viability ([6]; first compound 0.002 µM): 0.51 | relative viability ([6]; first compound 0.006325 µM): 0.474 | relative viability ([6]; first compound 0.02 µM): 0.44 | relative viability ([6]; first compound 0.06325 µM): 0.462 | relative viability ([6]; first compound 0.2 µM): 0.373

CCNC(=O)c1noc(-c2cc(C(C)C)c(O)cc2O)c1-c1ccc(CN2CCOCC2)cc1 [Luminespib] + Nc1nc2[nH]cc(CCc3ccc(C(=O)N[C@@H](CCC(=O)O)C(=O)O)cc3)c2c(=O)[nH]1 [Pemetrexed] (partner 0.2 µM)
relative viability ([1]; first compound 0.002 µM): 0.958 | relative viability ([1]; first compound 0.006325 µM): 0.25 | relative viability ([1]; first compound 0.02 µM): 0.812 | relative viability ([1]; first compound 0.06325 µM): 0.495 | relative viability ([1]; first compound 0.2 µM): 0.256 | relative viability ([2]; first compound 0.002 µM): 1.23 | relative viability ([2]; first compound 0.006325 µM): 0.988 | relative viability ([2]; first compound 0.02 µM): 0.906 | relative viability ([2]; first compound 0.06325 µM): 0.146 | relative viability ([2]; first compound 0.2 µM): 0.124 | relative viability ([3]; first compound 0.002 µM): 0.299 | relative viability ([3]; first compound 0.006325 µM): 0.159 | relative viability ([3]; first compound 0.02 µM): 0.221 | relative viability ([3]; first compound 0.06325 µM): 0.0902 | relative viability ([3]; first compound 0.2 µM): 0.0524 | relative viability ([4]; first compound 0.002 µM): 0.753 | relative viability ([4]; first compound 0.006325 µM): 0.683 | relative viability ([4]; first compound 0.02 µM): 0.899 | relative viability ([4]; first compound 0.06325 µM): 0.749 | relative viability ([4]; first compound 0.2 µM): 0.267 | relative viability ([5]; first compound 0.002 µM): 0.555 | relative viability ([5]; first compound 0.006325 µM): 0.536 | relative viability ([5]; first compound 0.02 µM): 0.474 | relative viability ([5]; first compound 0.06325 µM): 0.646 | relative viability ([5]; first compound 0.2 µM): 0.443 | relative viability ([6]; first compound 0.002 µM): 0.415 | relative viability ([6]; first compound 0.006325 µM): 0.424 | relative viability ([6]; first compound 0.02 µM): 0.415 | relative viability ([6]; first compound 0.06325 µM): 0.264 | relative viability ([6]; first compound 0.2 µM): 0.2

CN1CCN(CCOc2cc(OC3CCOCC3)c3c(Nc4c(Cl)ccc5c4OCO5)ncnc3c2)CC1 [Saracatinib] + CC(=O)c1c(C)c2cnc(Nc3ccc(N4CCNCC4)cn3)nc2n(C2CCCC2)c1=O [Palbociclib] (partner 0.5 µM)
relative viability ([1]; first compound 0.02 µM): 0.531 | relative viability ([1]; first compound 0.2 µM): 0.457 | relative viability ([1]; first compound 0.6325 µM): 0.525 | relative viability ([1]; first compound 2 µM): 0.506 | relative viability ([2]; first compound 0.02 µM): 0.542 | relative viability ([2]; first compound 0.2 µM): 0.409 | relative viability ([2]; first compound 0.6325 µM): 0.527 | relative viability ([2]; first compound 2 µM): 0.152 | relative viability ([3]; first compound 0.02 µM): 0.496 | relative viability ([3]; first compound 0.2 µM): 0.405 | relative viability ([3]; first compound 0.6325 µM): 0.528 | relative viability ([3]; first compound 2 µM): 0.313 | relative viability ([4]; first compound 0.02 µM): 0.252 | relative viability ([4]; first compound 0.2 µM): 0.291 | relative viability ([4]; first compound 0.6325 µM): 0.304 | relative viability ([4]; first compound 2 µM): 0.307 | relative viability ([5]; first compound 0.02 µM): 0.587 | relative viability ([5]; first compound 0.2 µM): 0.478 | relative viability ([5]; first compound 0.6325 µM): 0.642 | relative viability ([5]; first compound 2 µM): 0.567 | relative viability ([6]; first compound 0.02 µM): 0.448 | relative viability ([6]; first compound 0.2 µM): 0.395 | relative viability ([6]; first compound 0.6325 µM): 0.45 | relative viability ([6]; first compound 2 µM): 0.435

Cc1csc(=NC2CCCCC2)n1/N=C/c1ccc(O)c(O)c1O [MIM1] + CC(=O)c1c(C)c2cnc(Nc3ccc(N4CCNCC4)cn3)nc2n(C2CCCC2)c1=O [Palbociclib] (partner 0.5 µM)
relative viability ([1]; first compound 0.2 µM): 0.523 | relative viability ([1]; first compound 0.6325 µM): 0.471 | relative viability ([1]; first compound 2 µM): 0.545 | relative viability ([1]; first compound 6.325 µM): 0.473 | relative viability ([1]; first compound 20 µM): 0.337 | relative viability ([2]; first compound 0.2 µM): 0.526 | relative viability ([2]; first compound 0.6325 µM): 0.386 | relative viability ([2]; first compound 2 µM): 0.481 | relative viability ([2]; first compound 6.325 µM): 0.268 | relative viability ([2]; first compound 20 µM): 0.118 | relative viability ([3]; first compound 0.2 µM): 0.774 | relative viability ([3]; first compound 0.6325 µM): 0.495 | relative viability ([3]; first compound 2 µM): 0.468 | relative viability ([3]; first compound 6.325 µM): 0.725 | relative viability ([3]; first compound 20 µM): 0.223 | relative viability ([4]; first compound 0.2 µM): 0.262 | relative viability ([4]; first compound 0.6325 µM): 0.284 | relative viability ([4]; first compound 2 µM): 0.311 | relative viability ([4]; first compound 6.325 µM): 0.276 | relative viability ([4]; first compound 20 µM): 0.248 | relative viability ([5]; first compound 0.2 µM): 0.542 | relative viability ([5]; first compound 0.6325 µM): 0.531 | relative viability ([5]; first compound 2 µM): 0.521 | relative viability ([5]; first compound 6.325 µM): 0.416 | relative viability ([5]; first compound 20 µM): 0.541 | relative viability ([6]; first compound 0.2 µM): 0.432 | relative viability ([6]; first compound 0.6325 µM): 0.453 | relative viability ([6]; first compound 2 µM): 0.431 | relative viability ([6]; first compound 6.325 µM): 0.419 | relative viability ([6]; first compound 20 µM): 0.306
